In one assay the test system is NCI-H1581 cells. In words: Cell proliferation assay on NCI-H1581 (Table 7). Type of assay: cell-based, human. From the text: (§1) Test method: adding the appropriate volume of whole medium and the cells was suspended.
Assay [1] relates to RT-112 (human bladder cancer cell). In words: Cell proliferation assay, CellTiter Glo (Table 9). In kind it is cell-based. For orientation: In ATP-based viability assays light output follows the ATP content of the culture.
Protocol: (§5) Test method: 100 μl of the cell suspension was added to a 96-well plate and placed in a CO2 incubator overnight. Test compounds were dissolved in DMSO and subjected to a 3-fold gradient dilution for a total of 10 concentrations. The test compound or DMSO was transferred to the corresponding cell wells respectively and was incubated for 96 hrs in 5% CO2 at 37° C. 100 μl of CellTiter-Glo reagent was added to the assay plate and incubated for 10 min at room temperature to stabilize the luminescence signal. The IC50 value was calculated by recording the RLU (relative luminescence unit) using Enspire.
Assay [2] deals with OPM-2 (human myeloma cell). Nature of the assay: Cell proliferation assay, CellTiter Glo (Table 9). Type of assay: cell-based.
Protocol: as §5
In assay [3] the test system is NCI-H716 (human colorectal cancer cell). Nature of the assay: Cell proliferation assay, CellTiter Glo (Table 9). In kind it is cell-based.
Protocol: as §5
Assay [4] has as its system MFE-296 (human endometrial cancer cells). In words: Cell proliferation assay, CellTiter Glo (Table 9). In kind it is cell-based. The following applies: WIFE-296 [sic].
Protocol: as §5
The subject of assay [5] is JHH-7 (human hepatoma cell). In words: Cell proliferation assay, CellTiter Glo (Table 9). Type of assay: cell-based.
Protocol: as §5
Assay [6] relates to DMS 114 (human lung cancer cell). Nature of the assay: Cell proliferation assay, CellTiter Glo (Table 9). In kind it is cell-based.
Protocol: as §5
Assay [7] concerns SNU-16 (human gastric cancer cell). In words: Cell proliferation assay, CellTiter Glo (Table 9). In kind it is cell-based.
Protocol: as §5
Assay [8] concerns MDA-MB-453 (human breast cancer cell). In words: Cell proliferation assay, CellTiter Glo (Table 9). Type of assay: cell-based.
Protocol: as §5
The test system of assay [9] is NCI-H1581 (human non-small cell lung cancer cells). Nature of the assay: Cell proliferation assay, CellTiter Glo (Table 9). Type of assay: cell-based.
Protocol: as §5
Assay [10] concerns RT4 (human bladder cancer cell). In words: Cell proliferation assay, CellTiter Glo (Table 9). In kind it is cell-based. As to conditions: 96 hrs.
Protocol: as §5
The target of assay [11] is T1, FGFR4 (Homo sapiens (Human), UniProt P22455). Nature of the assay: Kinase assay Method 1, mobility shift assay. As to conditions: ATP at Km, numeric values, read-out: IC50(nM) value of compounds FGFR4. In kind it is biochemical.
T1 sequence (P22455 22-802): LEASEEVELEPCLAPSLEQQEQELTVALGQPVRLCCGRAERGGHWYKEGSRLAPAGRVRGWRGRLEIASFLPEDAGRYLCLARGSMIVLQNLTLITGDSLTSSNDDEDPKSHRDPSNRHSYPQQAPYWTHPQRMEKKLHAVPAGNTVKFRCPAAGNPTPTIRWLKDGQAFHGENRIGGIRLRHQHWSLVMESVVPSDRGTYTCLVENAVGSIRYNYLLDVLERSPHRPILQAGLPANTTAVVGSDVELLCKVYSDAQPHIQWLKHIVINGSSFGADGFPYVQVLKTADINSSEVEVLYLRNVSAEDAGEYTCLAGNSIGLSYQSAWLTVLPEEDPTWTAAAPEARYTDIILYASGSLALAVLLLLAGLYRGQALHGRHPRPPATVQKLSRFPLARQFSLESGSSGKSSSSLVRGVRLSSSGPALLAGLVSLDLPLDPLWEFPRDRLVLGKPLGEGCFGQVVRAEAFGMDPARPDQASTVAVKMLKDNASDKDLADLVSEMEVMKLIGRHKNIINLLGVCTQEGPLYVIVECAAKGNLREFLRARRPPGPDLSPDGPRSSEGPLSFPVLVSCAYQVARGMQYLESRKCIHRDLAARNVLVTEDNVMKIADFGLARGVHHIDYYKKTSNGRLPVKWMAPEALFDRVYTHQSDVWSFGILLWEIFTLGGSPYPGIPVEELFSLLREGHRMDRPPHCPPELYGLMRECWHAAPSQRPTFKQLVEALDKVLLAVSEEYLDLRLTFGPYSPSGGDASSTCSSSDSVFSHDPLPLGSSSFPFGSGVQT
For another assay, the target named is FGFR2 (Homo sapiens (Human), UniProt P21802). In words: Kinase assay Method 2, isotope-labeled 33P-ATP method. Type of assay: biochemical. As to conditions: ATP at Km, filter-binding, read-out: IC50(nM) value of compounds, FGFR2. As for the experimental part: (§2) Reagent: basic kinase buffer: 20 mM Hepes (pH 7.5), 10 mM MgCl2, 1 mM EGTA, 0.02% Brij35, 0.02 mg/mL BSA, 0.1 mM Na3VO4, 2 mM DTT, 1% DMSO
Chain of FGFR2 (P21802 22-821): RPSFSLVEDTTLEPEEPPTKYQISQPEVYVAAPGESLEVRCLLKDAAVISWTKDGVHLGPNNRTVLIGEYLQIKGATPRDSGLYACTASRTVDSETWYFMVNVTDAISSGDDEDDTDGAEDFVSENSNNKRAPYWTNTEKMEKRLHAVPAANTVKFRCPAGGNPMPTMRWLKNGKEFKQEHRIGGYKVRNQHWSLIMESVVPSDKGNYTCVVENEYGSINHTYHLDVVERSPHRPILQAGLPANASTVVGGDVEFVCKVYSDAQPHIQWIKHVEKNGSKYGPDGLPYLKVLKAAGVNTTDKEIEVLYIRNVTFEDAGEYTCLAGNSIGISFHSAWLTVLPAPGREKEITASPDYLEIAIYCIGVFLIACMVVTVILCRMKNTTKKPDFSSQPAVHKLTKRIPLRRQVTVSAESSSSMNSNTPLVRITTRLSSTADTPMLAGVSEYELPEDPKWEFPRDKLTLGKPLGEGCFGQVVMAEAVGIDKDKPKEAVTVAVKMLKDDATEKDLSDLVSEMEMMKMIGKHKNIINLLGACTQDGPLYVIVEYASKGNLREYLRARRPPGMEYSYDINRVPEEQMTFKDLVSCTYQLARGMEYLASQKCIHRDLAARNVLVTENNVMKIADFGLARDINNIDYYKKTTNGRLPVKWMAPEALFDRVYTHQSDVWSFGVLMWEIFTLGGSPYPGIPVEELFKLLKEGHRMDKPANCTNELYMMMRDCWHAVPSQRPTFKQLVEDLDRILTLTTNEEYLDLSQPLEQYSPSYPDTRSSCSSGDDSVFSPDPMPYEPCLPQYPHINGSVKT
(§3) Adding the corresponding coenzyme factor to each kinase reaction
(§4) Reaction process: 1) formulating the substrate in freshly configured reaction buffer • 2) adding the required coenzyme factor to the above substrate solution • 3) adding kinase to the substrate solution and mixing gently • 4) adding the compounds dissolved in 100% DMSO to the above kinase reaction mixture, mixed well and incubating for 20 min at room temperature • 5) adding ^33P-ATP (specific activity 10 μCi/μL) to the reaction mixture to initiate the reaction and incubating for 2 h at room temperature • 6) detection of kinase activity by filter-binding The experiment data is shown in table 6: […]

A further assay deals with FGFR3 (Homo sapiens (Human), UniProt P22607). The assay is described as above. In kind it is biochemical. The following applies: ATP at Km, filter-binding, read-out: IC50(nM) value of compounds, FGFR3. As for the experimental part:
as §2, §3, §4

Assay [12] concerns the target T1, FGFR4. The assay is described as above. As to conditions: ATP at Km, filter-binding, read-out: IC50(nM) value of compounds, FGFR4. In kind it is biochemical. The protocol: as §2, §3, §4
For assay [13], the system named is cell lines with abnormal changes in FGFR signaling pathway. Nature of the assay: cells. As to conditions: Homo sapiens, read-out: IC50 value. The protocol:
Test method: 100 μl of the cell suspension was added to a 96-well plate and placed in a CO2 incubator overnight. […] The test compound or DMSO was transferred to the corresponding cell wells respectively and was incubated for 96 hrs in 5% CO2 at 37° C. 100 μl of CellTiter-Glo reagent was added to the assay plate and incubated for 10 min at room temperature to stabilize the luminescence signal. The IC50 value was calculated by recording the RLU (relative luminescence unit) using Enspire.

Another assay has as its system SNU-16 cells. In words: Cell proliferation assay on SNU-16, CellTiter Glo (Table 8). In kind it is cell-based, human. The following applies: 96 hrs, class symbols, read-out: IC50(nM) value of compounds on SNU-16 cells.
Source text: as §1

Where [14] appears, read: Homo sapiens, MDA-MB-453, 96 hrs.
The mark [15] stands for this setting: Homo sapiens, NCI-H1581, 96 hrs.

pIC50: −log10 of the molar value. Read-outs that look alike come from different tables or passages of the source.

What is called IC50 is the concentration that inhibits the measured activity by half. As usually defined, the pIC50 is the negative decadic logarithm of the IC50, by convention in mol/L.

Chain of FGFR3 (P22607 23-806): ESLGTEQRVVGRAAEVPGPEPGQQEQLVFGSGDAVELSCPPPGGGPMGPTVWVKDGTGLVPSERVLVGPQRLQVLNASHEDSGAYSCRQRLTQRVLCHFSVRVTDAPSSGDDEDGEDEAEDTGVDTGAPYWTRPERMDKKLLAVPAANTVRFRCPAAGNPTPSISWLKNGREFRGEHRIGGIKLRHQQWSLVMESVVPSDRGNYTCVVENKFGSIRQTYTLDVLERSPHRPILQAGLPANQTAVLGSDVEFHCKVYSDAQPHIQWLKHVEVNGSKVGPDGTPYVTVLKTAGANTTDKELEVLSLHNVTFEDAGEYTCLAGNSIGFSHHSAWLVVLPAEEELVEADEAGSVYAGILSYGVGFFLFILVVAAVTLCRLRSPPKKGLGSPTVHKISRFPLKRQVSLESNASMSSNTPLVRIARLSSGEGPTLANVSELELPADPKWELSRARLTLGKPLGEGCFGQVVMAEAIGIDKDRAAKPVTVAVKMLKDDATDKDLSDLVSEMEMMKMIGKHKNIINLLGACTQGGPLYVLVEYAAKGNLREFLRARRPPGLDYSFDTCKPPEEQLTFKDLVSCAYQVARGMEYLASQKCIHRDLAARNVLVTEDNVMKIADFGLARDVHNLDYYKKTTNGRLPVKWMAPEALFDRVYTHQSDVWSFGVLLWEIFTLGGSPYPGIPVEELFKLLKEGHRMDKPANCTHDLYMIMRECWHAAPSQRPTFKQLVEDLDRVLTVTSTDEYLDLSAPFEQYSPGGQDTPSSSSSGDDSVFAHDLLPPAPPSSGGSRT

With `CCN1CCN(c2ccc(Nc3cc(N(C)C(=O)Nc4c(Cl)c(OC)cc(OC)c4Cl)ncn3)cc2)CC1` [BGJ398, Infigratinib], the half-inhibitory concentration (IC50) in the assay with NCI-H1581 cells (Homo sapiens, NCI-H1581, CellTiter 96 AQueous (144 hrs) or CellTiter Glo (96 hrs), numeric values, read-out: IC50(nM) value of compounds on NCI-H1581 cells) was found to be 3.4 nM; in [1] (Homo sapiens, RT-112, 96 hrs), 4.4 nM; in assay [2] (Homo sapiens, OPM-2, 96 hrs), 18 nM; in assay [3] (Homo sapiens, NCI-H716, 96 hrs), 4.6 nM; in assay [4] (Homo sapiens, MFE-296, 96 hrs), 51.4 nM; in assay [5] (Homo sapiens, JHH7, 96 hrs) it was 54.1 nM. The IC50 in [6] (Homo sapiens, DMS-114, 96 hrs) is 33.6 nM; in assay [7] (Homo sapiens, SNU-16, 96 hrs), 9.5 nM; in [8] (setting [14]) it was 544 nM; in [9] (setting [15]), 18.2 nM; in assay [10] (Homo sapiens) it was 16.9 nM.

`CCN1CCN(c2ccc(Nc3ncc4cc(-c5cc(OC)cc(OC)c5Cl)c5nncn5c4n3)cc2)CC1` [Compound 4, 6-(2-chloro-3,5-dimethoxyphenyl)-N-(4-(4-ethylpiperazin-1-yl)phenyl)-[1,2,4]triazolo[4′,3′:1,6]pyrido[2,3-d]pyrimidin-2-amine]: the half-inhibitory concentration (IC50) on FGFR4 [11] amounted to 27 nM; at FGFR2 it was 0.16 nM; at FGFR3, 1.34 nM; at FGFR4 [12] it was 5.06 nM; in the assay with NCI-H1581 cells (Homo sapiens, NCI-H1581, read-out: IC50(nM) value of compounds on NCI-H1581 cells) it was 0.4 nM; in [1] (Homo sapiens, RT-112, 96 hrs), 1 nM. The IC50 in assay [2] (Homo sapiens, OPM-2, 96 hrs) amounted to 4 nM; in assay [3] (Homo sapiens, NCI-H716, 96 hrs), 0.5 nM; in assay [4] (Homo sapiens, MFE-296, 96 hrs), 2.7 nM; in assay [5] (Homo sapiens, JHH7, 96 hrs), 6.6 nM; in assay [6] (Homo sapiens, DMS-114, 96 hrs), 7.4 nM; in assay [7] (Homo sapiens, SNU-16, 96 hrs), 1.1 nM. Also, the results for the IC50 in assay [8] (setting [14]), in assay [9] (setting [15]) and in [10] (Homo sapiens) were 61.3 nM, 1.2 nM and 1.9 nM, respectively. In addition, the pIC50 in assay [13] was 8.57 to 9.30.

With `COc1cc(OC)cc(N(CCNC(C)C)c2ccc3ncc(-c4cnn(C)c4)nc3c2)c1` [JNJ42756493], the IC50 is 0.5 nM in the assay on NCI-H1581 cells (CellTiter 96 AQueous (144 hrs) or CellTiter Glo (96 hrs), numeric values, read-out: IC50(nM) value of compounds on NCI-H1581 cells); less than 1 nM in the assay with SNU-16 cells; 0.8 nM in assay [1] (96 hrs); 2.5 nM in [2] (96 hrs); 0.6 nM in assay [3] (96 hrs); 16.7 nM in [4] (96 hrs). Further, the IC50 came out at 3.8 nM in [5] (96 hrs); 14.8 nM in assay [6] (96 hrs); 1.2 nM in assay [7] (96 hrs); 11 nM in assay [8] (96 hrs); 1.5 nM in assay [9] (96 hrs); 2.4 nM in assay [10].

The values are drawn from patent publication US11365196B2, “FGFR inhibitor and application thereof” (Betta Pharmaceuticals Co., Ltd., priority 2017, dated 2022).
